Assay results: patent US20210403485A1, “PYRAZOLOPYRIMIDINE DERIVATIVE AS SELECTIVE TRK INHIBITOR” (SHANDONG LUYE PHARMACEUTICAL CO., LTD., priority 2018, published 2021)
pIC50: −log10 of the molar value.

Legend:
[1] = molecular target: T1, Ba/F3 SLC34A2-ROS1-WT (Homo sapiens, UniProt P08922); assay: Inhibitory activity against cell proliferation (CellTiter-Glo, 72 hours); format: cell-based; conditions: read-out: Half maximal inhibitory concentration IC50 of cells, Ba/F3 SLC34A2-ROS1-WT
T1 construct: fused on or other part: N-terminal part of SLC34A2 as fusion partner (part of the key); O95436 (Sodium-dependent phosphate transport protein 2B)
T1 sequence (P08922 whole entry, stated change not applied, the tested form may be a part): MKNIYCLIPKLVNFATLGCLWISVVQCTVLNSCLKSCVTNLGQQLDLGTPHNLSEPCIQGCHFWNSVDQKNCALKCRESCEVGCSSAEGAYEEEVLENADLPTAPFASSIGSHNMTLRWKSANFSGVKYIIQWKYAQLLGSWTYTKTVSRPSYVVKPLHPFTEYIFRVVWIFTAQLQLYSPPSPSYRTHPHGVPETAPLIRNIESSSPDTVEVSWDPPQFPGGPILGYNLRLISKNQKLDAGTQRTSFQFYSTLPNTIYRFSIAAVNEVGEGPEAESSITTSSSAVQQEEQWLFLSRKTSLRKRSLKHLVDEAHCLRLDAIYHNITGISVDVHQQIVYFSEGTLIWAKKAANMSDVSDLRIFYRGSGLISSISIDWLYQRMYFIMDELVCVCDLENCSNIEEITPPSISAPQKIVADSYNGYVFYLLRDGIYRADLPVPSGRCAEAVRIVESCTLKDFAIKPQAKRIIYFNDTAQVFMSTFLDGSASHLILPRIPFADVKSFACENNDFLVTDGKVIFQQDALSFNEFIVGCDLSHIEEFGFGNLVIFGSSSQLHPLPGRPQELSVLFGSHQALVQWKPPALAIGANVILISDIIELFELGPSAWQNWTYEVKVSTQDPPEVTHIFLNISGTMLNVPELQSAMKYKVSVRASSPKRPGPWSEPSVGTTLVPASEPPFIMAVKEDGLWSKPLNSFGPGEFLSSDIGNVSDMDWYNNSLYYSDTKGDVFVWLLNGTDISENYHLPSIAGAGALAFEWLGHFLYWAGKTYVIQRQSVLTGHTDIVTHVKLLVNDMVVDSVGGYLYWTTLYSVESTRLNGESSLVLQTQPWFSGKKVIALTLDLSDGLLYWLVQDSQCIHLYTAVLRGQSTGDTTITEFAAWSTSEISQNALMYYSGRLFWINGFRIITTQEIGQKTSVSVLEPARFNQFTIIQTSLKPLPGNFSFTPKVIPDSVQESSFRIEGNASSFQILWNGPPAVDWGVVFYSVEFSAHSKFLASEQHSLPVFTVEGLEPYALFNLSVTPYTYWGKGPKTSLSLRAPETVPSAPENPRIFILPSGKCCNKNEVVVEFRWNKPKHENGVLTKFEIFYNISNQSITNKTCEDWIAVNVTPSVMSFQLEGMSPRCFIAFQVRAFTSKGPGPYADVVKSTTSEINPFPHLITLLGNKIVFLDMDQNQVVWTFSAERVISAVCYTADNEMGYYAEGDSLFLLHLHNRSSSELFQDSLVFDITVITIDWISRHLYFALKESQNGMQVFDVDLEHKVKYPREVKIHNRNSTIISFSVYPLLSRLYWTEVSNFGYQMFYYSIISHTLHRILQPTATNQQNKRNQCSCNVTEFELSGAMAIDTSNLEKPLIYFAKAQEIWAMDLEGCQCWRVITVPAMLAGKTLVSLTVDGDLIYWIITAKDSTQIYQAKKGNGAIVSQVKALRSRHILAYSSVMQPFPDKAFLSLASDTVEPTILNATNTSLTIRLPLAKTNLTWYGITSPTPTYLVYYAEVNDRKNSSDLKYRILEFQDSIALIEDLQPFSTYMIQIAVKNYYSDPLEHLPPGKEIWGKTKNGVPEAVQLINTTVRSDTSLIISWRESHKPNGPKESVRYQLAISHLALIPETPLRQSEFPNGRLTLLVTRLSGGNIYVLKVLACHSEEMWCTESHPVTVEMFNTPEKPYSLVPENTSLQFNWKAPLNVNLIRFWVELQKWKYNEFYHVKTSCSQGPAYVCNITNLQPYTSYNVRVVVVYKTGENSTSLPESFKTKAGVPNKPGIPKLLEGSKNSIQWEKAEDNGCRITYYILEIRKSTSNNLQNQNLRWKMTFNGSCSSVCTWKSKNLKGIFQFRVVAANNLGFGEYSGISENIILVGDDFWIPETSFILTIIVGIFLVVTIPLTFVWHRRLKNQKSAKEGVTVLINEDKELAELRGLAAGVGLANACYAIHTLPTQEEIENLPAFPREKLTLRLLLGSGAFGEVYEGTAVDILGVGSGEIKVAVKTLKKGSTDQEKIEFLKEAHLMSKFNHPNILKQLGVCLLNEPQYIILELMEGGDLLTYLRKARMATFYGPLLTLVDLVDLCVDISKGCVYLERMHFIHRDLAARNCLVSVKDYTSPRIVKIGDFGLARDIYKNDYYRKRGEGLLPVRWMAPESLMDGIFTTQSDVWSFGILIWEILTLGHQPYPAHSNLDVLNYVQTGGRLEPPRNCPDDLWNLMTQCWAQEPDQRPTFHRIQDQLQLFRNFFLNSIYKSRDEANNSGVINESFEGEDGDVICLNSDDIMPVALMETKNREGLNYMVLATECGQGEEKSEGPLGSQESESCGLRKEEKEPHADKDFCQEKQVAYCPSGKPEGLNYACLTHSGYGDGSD
Procedure: (§1) Adenosine Triphosphate (ATP) is an energy carrier commonly used in various life activities in nature, and is the minimum unit for energy storage and transfer. The CellTiter-Glo™ cell viability assay kit uses luciferase as an assay agent, which requires the involvement of ATP in luminescence. The CellTiter-Glo™ reagent is added into cell culture medium to measure the luminescence value. The luminescence signal is directly proportional to the amount of ATP in the system, and the ATP is positively correlated with the number of viable cells. Therefore, the proliferation of cells can be detected by detecting the ATP content using the CellTiter-Glo kit.
(§2) a) Cells in the logarithmic growth phase were collected and counted using a […]. The cell viability was detected by the trypan blue exclusion method, and the cell viability was kept over 90%.
(§3) b) The cell concentration was adjusted; 90 μL of the cell suspension was added to a 96-well plate.
(§4) a) A 10-fold compound solution was prepared, with the highest concentration being 10 μM (a total of 9 concentrations, 3-fold dilution). 10 μL of compound solution was added to each well of a 96-well plate inoculated with cells, and three duplicate wells were set for each compound concentration.
(§5) a) The CTG reagent was thawed and the cell plate was equilibrated to room temperature for 30 minutes.
(§6) b) An equal volume of CTG solution was added to each well.
(§7) c) The plate was shaken on an orbital shaker for 5 minutes to lyse the cells.
(§8) d) The cell plate was placed at room temperature for 20 minutes to stabilize the luminescence signal.
(§9) e) The luminescence value was read.
(§10) The data were analyzed using GraphPad Prism 5.0 software, fitted with nonlinear S-curve regression to give dose-response curves, and IC50 values were calculated therefrom.

[2] = molecular target: T2, ALK (Homo sapiens, UniProt Q9UM73); assay: Kinase inhibitory activity (33P-ATP, filtration-binding method, Reaction Biology Corp.); format: biochemical; conditions: read-out: Half maximal inhibitory concentration IC50 for kinases, ALK
T2 construct: purchased Reaction Biology Corp
T2 sequence (Q9UM73 19-1620): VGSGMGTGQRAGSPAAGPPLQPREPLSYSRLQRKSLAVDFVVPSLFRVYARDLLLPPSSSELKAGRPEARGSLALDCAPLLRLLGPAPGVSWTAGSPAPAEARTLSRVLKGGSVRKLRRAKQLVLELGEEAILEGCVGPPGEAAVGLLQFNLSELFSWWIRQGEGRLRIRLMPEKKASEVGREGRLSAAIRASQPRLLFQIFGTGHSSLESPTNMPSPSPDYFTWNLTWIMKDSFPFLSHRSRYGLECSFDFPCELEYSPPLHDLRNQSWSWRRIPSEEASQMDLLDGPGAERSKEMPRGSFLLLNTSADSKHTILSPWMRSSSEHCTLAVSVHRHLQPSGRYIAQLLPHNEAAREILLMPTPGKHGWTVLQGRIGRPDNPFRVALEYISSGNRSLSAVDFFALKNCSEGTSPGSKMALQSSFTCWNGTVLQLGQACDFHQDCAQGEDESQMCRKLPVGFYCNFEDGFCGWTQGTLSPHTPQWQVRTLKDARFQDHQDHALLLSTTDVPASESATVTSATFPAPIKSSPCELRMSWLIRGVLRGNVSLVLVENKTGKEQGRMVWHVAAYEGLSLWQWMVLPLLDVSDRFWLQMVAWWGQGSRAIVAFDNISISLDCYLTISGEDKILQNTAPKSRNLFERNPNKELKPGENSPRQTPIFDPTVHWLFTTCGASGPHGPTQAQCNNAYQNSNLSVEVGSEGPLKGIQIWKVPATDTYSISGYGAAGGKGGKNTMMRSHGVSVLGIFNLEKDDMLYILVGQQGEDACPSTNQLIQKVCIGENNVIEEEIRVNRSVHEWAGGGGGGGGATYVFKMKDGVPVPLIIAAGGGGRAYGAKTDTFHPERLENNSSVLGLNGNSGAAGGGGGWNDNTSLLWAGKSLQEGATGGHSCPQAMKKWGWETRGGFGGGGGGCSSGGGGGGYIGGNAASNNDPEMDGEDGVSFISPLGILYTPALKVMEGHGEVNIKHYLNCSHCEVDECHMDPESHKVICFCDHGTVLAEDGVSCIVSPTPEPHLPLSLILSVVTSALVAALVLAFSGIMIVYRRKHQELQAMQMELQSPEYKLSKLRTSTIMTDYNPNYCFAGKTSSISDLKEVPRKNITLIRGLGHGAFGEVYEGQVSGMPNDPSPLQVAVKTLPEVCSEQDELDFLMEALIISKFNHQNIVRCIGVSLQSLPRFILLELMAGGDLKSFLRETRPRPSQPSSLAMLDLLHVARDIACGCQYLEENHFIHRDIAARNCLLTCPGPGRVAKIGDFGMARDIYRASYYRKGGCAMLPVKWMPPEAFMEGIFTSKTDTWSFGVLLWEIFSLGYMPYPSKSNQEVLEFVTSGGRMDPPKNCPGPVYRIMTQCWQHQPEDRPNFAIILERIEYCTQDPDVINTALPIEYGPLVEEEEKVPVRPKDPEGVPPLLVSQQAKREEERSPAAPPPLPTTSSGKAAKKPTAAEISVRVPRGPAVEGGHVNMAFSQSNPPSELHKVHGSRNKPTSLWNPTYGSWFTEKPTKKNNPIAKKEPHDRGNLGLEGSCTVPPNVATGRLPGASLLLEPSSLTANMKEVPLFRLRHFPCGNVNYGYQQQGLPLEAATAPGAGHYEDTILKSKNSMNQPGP
Procedure: The mixture was incubated at room temperature for 20 minutes, added with ^33P-ATP at a certain concentration to start the reaction, and then incubated at room temperature for 120 minutes. Finally, the radioactivity of the reactant was detected by the filtration-binding method. The final kinase activity was expressed as the ratio of the remaining kinase activity in the test sample to the kinase activity of the DMSO control. The dose-response curves were fitted and IC50 values were calculated by GraphPad software.

[3] = tested on: Ba/F3 ETV6-NTRK3 cells; assay: Efficacy test in animals: subcutaneous xenograft, intragastric administration; format: in vivo, nude mice; conditions: 60 mg/kg qd
Procedure: (§11) Cells in the logarithmic growth phase were collected and resuspended in serum-free medium to a cell concentration of 2-4×10^7 cells/mL. An equal volume of matrigel was added to the cell suspension to achieve a final cell concentration of 1-2×10^7 cells/mL. 0.2 mL of tumor cell suspension was subcutaneously inoculated at the scapula of each nude mouse with the inoculation amount of 2-4×10^6 cells/mouse to prepare the animal models.

[4] = tested on: Ba/F3 ETV6-NTRK3-G623R cells; assay: as above; format: in vivo, nude mice; conditions: 60 mg/kg qd
Procedure: as §11

[5] = molecular target: T3, BaF3 ETV6-NTRK3-G623R (Homo sapiens, UniProt Q16288, G623R, cells depend on it); assay: Inhibitory activity against cell proliferation (CellTiter-Glo, 72 hours); format: cell-based; conditions: read-out: Half maximal inhibitory concentration IC50 of cells, BaF3 ETV6-NTRK3-G623R
T3 construct: fused on or other part: N-terminal part of ETV6 (TEL) as fusion partner (part of the key); P41212 (Transcription factor ETV6)
T3 sequence (Q16288 whole entry G623R, the tested form may be a part): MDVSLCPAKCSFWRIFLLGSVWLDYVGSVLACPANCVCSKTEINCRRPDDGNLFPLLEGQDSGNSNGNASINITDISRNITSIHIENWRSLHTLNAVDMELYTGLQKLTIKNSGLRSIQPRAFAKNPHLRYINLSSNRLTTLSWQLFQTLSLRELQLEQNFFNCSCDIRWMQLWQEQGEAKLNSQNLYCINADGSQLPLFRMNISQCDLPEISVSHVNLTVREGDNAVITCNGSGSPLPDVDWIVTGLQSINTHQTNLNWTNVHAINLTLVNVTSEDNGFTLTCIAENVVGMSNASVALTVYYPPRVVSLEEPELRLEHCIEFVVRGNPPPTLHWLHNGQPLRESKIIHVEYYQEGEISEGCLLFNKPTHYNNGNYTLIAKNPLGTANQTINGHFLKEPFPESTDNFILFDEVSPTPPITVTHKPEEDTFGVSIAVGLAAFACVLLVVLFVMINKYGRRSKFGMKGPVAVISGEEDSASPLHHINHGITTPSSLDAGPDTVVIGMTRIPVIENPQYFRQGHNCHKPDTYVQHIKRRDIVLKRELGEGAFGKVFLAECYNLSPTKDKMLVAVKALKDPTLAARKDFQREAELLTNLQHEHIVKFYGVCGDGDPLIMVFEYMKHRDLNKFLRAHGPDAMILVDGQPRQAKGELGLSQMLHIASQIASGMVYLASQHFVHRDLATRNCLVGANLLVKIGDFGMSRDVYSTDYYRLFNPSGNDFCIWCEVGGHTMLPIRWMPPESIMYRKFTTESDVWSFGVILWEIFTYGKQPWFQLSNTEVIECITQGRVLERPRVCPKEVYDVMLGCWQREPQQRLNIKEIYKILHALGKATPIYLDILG
Procedure: as §1, with “kit. In this test, the cell lines used are Ba/F3 LMNA-NTRK1-WT, Ba/F3 LMNA-NTRK1-F589L, BaF3 LMNA-NTRK1-G595R, BaF3 LMNA-NTRK1-G667A, BaF3 ETV6-NTRK3-WT, BaF3 ETV6-NTRK3-G623R, and Ba/F3 SLC34A2-ROS1-WT stable cell strains, 5000 cells/well.” for “kit.”
as §2, §3
c) Cells in the 96-well plate were incubated overnight at 37° C. with 5% CO2 and 95% humidity.
as §4
b) The cells in the 96-well plate added with compound were incubated for 72 hours at 37° C. with 5% CO2 and 95% humidity, followed by the CTG (CellTiter-Glo) analysis.
as §5, §6, §7, §8, §9, §10

With `O=C(Nc1cnn2ccc(N3CCC[C@@H]3c3cc(F)ccc3F)nc12)N1CC[C@H](O)C1` [LOXO-101, larotrectinib, reference compound] the GI50 [1] was greater than 1000 nM, the pIC50 [2] was less than 6.00 and the Tumor volume ([3]; Day 0) was 303.89 ± 50.02 mm^3. For the same compound, the Tumor volume ([3]; Day 3) was 510.07 ± 224.94 mm^3, the Tumor volume ([3]; Day 5) was 490.32 ± 170.06 mm^3 and the Tumor volume ([3]; Day 7) was 731.42 ± 372.59 mm^3. The Tumor volume ([3]; Day 9) was 1289.62 ± 757.75 mm^3, the Tumor volume ([3]; Day 11) was 1361.88 ± 710.90 mm^3 and the “TGI (tumor growth inhibition rate)” value ([3]; day of dissection) was 63.87%. For the same compound, the “Tumor inhibition rate (by tumor weight)” value ([3]; end of the test) was 63.49%, the Tumor weight ([3]; end of the test) was 0.64 ± 0.44 g and the Tumor volume ([4]; Day 0) was 200.39 ± 31.65 mm^3. The Tumor volume ([4]; Day 3) was 552.34 ± 219.25 mm^3, the Tumor volume ([4]; Day 5) was 1025.59 ± 347.93 mm^3 and the Tumor volume ([4]; Day 7) was 1349.08 ± 541.06 mm^3. For the same compound, the Tumor volume ([4]; Day 9) was 1822.21 ± 755.31 mm^3, the Tumor volume ([4]; Day 11) was 2375.84 ± 852.18 mm^3 and the “TGI (tumor growth inhibition rate)” value ([4]; day of dissection) was 31.65%. The “Tumor inhibition rate (by tumor weight)” value ([4]; end of the test) was 25.27%, the Tumor weight ([4]; end of the test) was 1.28 ± 0.62 g and the GI50 [5] was 394 nM.
